Experimental data reported in PubChem BioAssay (NCI).
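Results reflect a 48-hour exposure of cells in 96-well plates to compound at five concentrations. Definition used: TGI = concentration required for complete inhibition of growth.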

Experiments:
Experiment in all cases: DTP human tumour cell line panel, 48 h
[1] = system: SW-620 colon
[2] = system: K-562 leukemia
[3] = system: HCC-2998 colon
[4] = system: UO-31 renal
[5] = system: MALME-3M melanoma
[6] = system: U251 CNS
[7] = system: RPMI-8226 leukemia
[8] = system: SK-OV-3 ovarian
[9] = system: SF-268 CNS
[10] = system: LOX IMVI melanoma
[11] = system: MDA-N
[12] = system: UACC-257 melanoma
[13] = system: CAKI-1 renal
[14] = system: HOP-92 NSCLC
[15] = system: UACC-62 melanoma
[16] = system: ACHN renal
[17] = system: OVCAR-3 ovarian
[18] = system: SR leukemia
[19] = system: HT29 colon
[20] = system: TK-10 renal
[21] = system: MOLT-4 leukemia
[22] = system: MDA-MB-435
[23] = system: HCT-15 colon
[24] = system: SNB-75 CNS
[25] = system: PC-3 prostate
[26] = system: IGROV1 ovarian
[27] = system: HS 578T breast
[28] = system: HOP-62 NSCLC
[29] = system: NCI-H522 lung
[30] = system: DU-145 prostate
[31] = system: HL-60(TB) leukemia
[32] = system: SK-MEL-2 melanoma
[33] = system: CCRF-CEM leukemia
[34] = system: OVCAR-5 ovarian
[35] = system: OVCAR-4 ovarian
[36] = system: SK-MEL-5 melanoma
[37] = system: A498 renal
[38] = system: MDA-MB-231 breast
[39] = system: SNB-19 CNS
[40] = system: T-47D breast
[41] = system: NCI-H226 lung
[42] = system: SF-539 CNS
[43] = system: EKVX NSCLC
[44] = system: KM12 colon
[45] = system: RXF 393 renal
[46] = system: NCI-H460 lung
[47] = system: MCF7 breast
[48] = system: SK-MEL-28 melanoma
[49] = system: A549 NSCLC
[50] = system: NCI/ADR-RES ovarian
[51] = system: COLO 205 colon
[52] = system: NCI-H23 lung
[53] = system: M14 melanoma
[54] = system: OVCAR-8 ovarian
[55] = system: SF-295 CNS
[56] = system: HCT-116 colon
[57] = system: SN12C renal
[58] = system: 786-0 renal
[59] = system: BT-549 breast

`Nc1[nH]nc(Nc2ccc(Cl)cc2)c1P(=O)(c1ccccc1)c1ccccc1` gave a TGI [1] of over 100 µM, a TGI [2] of over 100 µM and a TGI [3] of 60.2 µM. It also gave a TGI [4] of over 100 µM, a TGI [5] of 47.9 µM and a TGI [6] of over 100 µM. It also gave a TGI [7] of over 100 µM, a TGI [8] of over 100 µM and a TGI [9] of 33.8 µM. It also gave a TGI [10] of over 100 µM, a TGI [11] of 47.4 µM and a TGI [12] of over 100 µM. For the same compound, the TGI [13] was over 100 µM, the TGI [14] was 70.8 µM and the TGI [15] was 56.4 µM. It also gave a TGI [16] of over 100 µM, a TGI [17] of 41.5 µM and a TGI [18] of over 100 µM. The TGI [19] was 65.2 µM, the TGI [20] was over 100 µM and the TGI [21] was over 100 µM. For the same compound, the TGI [22] was 42.8 µM, the TGI [23] was 98.4 µM and the TGI [24] was 51.8 µM. It also gave a TGI [25] of 61.1 µM, a TGI [26] of 55.2 µM and a TGI [27] of 37.2 µM. It also gave a TGI [28] of 49.1 µM, a TGI [29] of 48.5 µM and a TGI [30] of 86.5 µM. The TGI [31] was 82.3 µM, the TGI [32] was 43.1 µM and the TGI [33] was 86.1 µM. It also gave a TGI [34] of 45.6 µM, a TGI [35] of 80.8 µM and a TGI [36] of 67.7 µM. The TGI [37] was over 100 µM, the TGI [38] was 49.8 µM and the TGI [39] was 92.4 µM. It also gave a TGI [40] of over 100 µM, a TGI [41] of 50.2 µM and a TGI [42] of 42.6 µM. It also gave a TGI [43] of over 100 µM, a TGI [44] of 37.5 µM and a TGI [45] of 53.9 µM. The TGI [46] was over 100 µM, the TGI [47] was over 100 µM and the TGI [48] was 64.9 µM. It also gave a TGI [49] of over 100 µM, a TGI [50] of 52.3 µM and a TGI [51] of over 100 µM. The TGI [52] was over 100 µM, the TGI [53] was 54.6 µM and the TGI [54] was 46.4 µM. It also gave a TGI [55] of 44.5 µM.

`CCOC(=O)c1[nH]c(-c2[nH]c(-c3[nH]c(-c4[nH]c(C(=O)OCC)c(C)c4C(=O)OCC)c(C(=O)OCC)c3C)c(C)c2C(=O)OCC)c(C(=O)OCC)c1C` showed a TGI [1] of over 100 µM, a TGI [2] of over 100 µM and a TGI [3] of over 100 µM. For the same compound, the TGI [5] was over 100 µM, the TGI [6] was over 100 µM and the TGI [7] was over 100 µM. The TGI [8] was over 100 µM, the TGI [9] was over 100 µM and the TGI [10] was over 100 µM. It also gave a TGI [11] of over 100 µM, a TGI [12] of over 100 µM and a TGI [13] of over 100 µM. For the same compound, the TGI [15] was over 100 µM, the TGI [16] was over 100 µM and the TGI [17] was over 100 µM. The TGI [19] was over 100 µM, the TGI [20] was over 100 µM and the TGI [21] was over 100 µM. The TGI [22] was over 100 µM, the TGI [23] was over 100 µM and the TGI [25] was over 100 µM. The TGI [26] was over 100 µM, the TGI [27] was over 100 µM and the TGI [28] was over 100 µM. The TGI [29] was over 100 µM, the TGI [30] was over 100 µM and the TGI [31] was over 100 µM. It also gave a TGI [32] of over 100 µM, a TGI [33] of over 100 µM and a TGI [34] of over 100 µM. For the same compound, the TGI [35] was over 100 µM, the TGI [56] was over 100 µM and the TGI [36] was over 100 µM. For the same compound, the TGI [37] was over 100 µM, the TGI [38] was over 100 µM and the TGI [39] was over 100 µM. The TGI [40] was over 100 µM, the TGI [41] was over 100 µM and the TGI [42] was over 100 µM. The TGI [43] was over 100 µM, the TGI [44] was over 100 µM and the TGI [45] was over 100 µM. For the same compound, the TGI [46] was over 100 µM, the TGI [47] was over 100 µM and the TGI [48] was over 100 µM. It also gave a TGI [57] of over 100 µM, a TGI [49] of over 100 µM and a TGI [50] of over 100 µM. For the same compound, the TGI [51] was over 100 µM, the TGI [52] was over 100 µM and the TGI [58] was over 100 µM. For the same compound, the TGI [53] was over 100 µM, the TGI [54] was over 100 µM and the TGI [55] was over 100 µM.

`OC1(c2ccc(-c3ccccc3)cc2)c2ccccc2C2=NCCN21` (configuration not stated) was tested, and the TGI [1] was over 100 µM, the TGI [2] was over 100 µM and the TGI [3] was 40.4 µM. For the same compound, the TGI [4] was over 100 µM, the TGI [6] was over 100 µM and the TGI [7] was over 100 µM. For the same compound, the TGI [8] was over 100 µM, the TGI [9] was over 100 µM and the TGI [10] was over 100 µM. For the same compound, the TGI [11] was over 100 µM, the TGI [12] was over 100 µM and the TGI [13] was over 100 µM. For the same compound, the TGI [14] was over 100 µM, the TGI [15] was 53.1 µM and the TGI [16] was 43.9 µM. For the same compound, the TGI [17] was 63.6 µM, the TGI [18] was over 100 µM and the TGI [19] was 50.3 µM. It also gave a TGI [20] of over 100 µM, a TGI [21] of over 100 µM and a TGI [22] of over 100 µM. The TGI [23] was over 100 µM, the TGI [24] was 48.9 µM and the TGI [25] was 62.9 µM. It also gave a TGI [27] of 75.4 µM, a TGI [28] of 43.5 µM and a TGI [30] of over 100 µM. For the same compound, the TGI [31] was over 100 µM, the TGI [32] was 24.9 µM and the TGI [33] was over 100 µM. For the same compound, the TGI [35] was over 100 µM, the TGI [56] was over 100 µM and the TGI [36] was 43.6 µM. The TGI [37] was over 100 µM, the TGI [38] was over 100 µM and the TGI [39] was 38.3 µM. For the same compound, the TGI [40] was over 100 µM, the TGI [41] was 62 µM and the TGI [44] was 54.4 µM. For the same compound, the TGI [46] was over 100 µM, the TGI [59] was over 100 µM and the TGI [48] was 80.6 µM. For the same compound, the TGI [57] was over 100 µM, the TGI [49] was over 100 µM and the TGI [50] was over 100 µM. The TGI [51] was 48.3 µM, the TGI [52] was 52.6 µM and the TGI [58] was 33.1 µM. For the same compound, the TGI [55] was over 100 µM.

With `O=C1c2ccccc2C(=O)c2cc(N=Nc3c(O)ccc4ccccc34)ccc21` the TGI [1] was over 100 µM, the TGI [2] was over 100 µM and the TGI [4] was over 100 µM. It also gave a TGI [5] of over 100 µM, a TGI [6] of over 100 µM and a TGI [7] of over 100 µM. For the same compound, the TGI [8] was over 100 µM, the TGI [9] was over 100 µM and the TGI [10] was over 100 µM. The TGI [11] was over 100 µM, the TGI [12] was over 100 µM and the TGI [13] was over 100 µM. It also gave a TGI [14] of over 100 µM, a TGI [15] of over 100 µM and a TGI [16] of over 100 µM. For the same compound, the TGI [17] was over 100 µM, the TGI [18] was over 100 µM and the TGI [19] was over 100 µM. The TGI [20] was over 100 µM, the TGI [21] was over 100 µM and the TGI [22] was over 100 µM. It also gave a TGI [23] of over 100 µM, a TGI [24] of over 100 µM and a TGI [25] of over 100 µM. For the same compound, the TGI [26] was over 100 µM, the TGI [27] was over 100 µM and the TGI [28] was over 100 µM. For the same compound, the TGI [29] was over 100 µM, the TGI [30] was over 100 µM and the TGI [32] was over 100 µM. For the same compound, the TGI [33] was over 100 µM, the TGI [34] was over 100 µM and the TGI [35] was over 100 µM. The TGI [56] was over 100 µM, the TGI [36] was over 100 µM and the TGI [37] was over 100 µM. The TGI [38] was over 100 µM, the TGI [39] was over 100 µM and the TGI [40] was over 100 µM. The TGI [41] was over 100 µM, the TGI [43] was over 100 µM and the TGI [44] was over 100 µM. The TGI [45] was over 100 µM, the TGI [59] was over 100 µM and the TGI [48] was over 100 µM. The TGI [57] was over 100 µM, the TGI [49] was over 100 µM and the TGI [50] was over 100 µM. The TGI [51] was over 100 µM, the TGI [52] was over 100 µM and the TGI [58] was over 100 µM. It also gave a TGI [53] of over 100 µM, a TGI [54] of over 100 µM and a TGI [55] of over 100 µM.
